The values below come from patent US7396842B2, “Five-membered cyclic compounds” (Dianippon Sumitomo Pharma Co., Ltd., priority 2002, dated 2008).

Like-named read-outs stand apart in the source and are kept apart here.

Data set [1] relates to leukocyte infiltration into the airway. Nature of the data set: Leukocyte infiltration into the airway in the guinea pig models (BALF cell counts). It counts as in vivo. As for the experimental part:
Evaluation of the Compound in the Leukocyte Infiltration into the Airway in the Guinea Pig Models:
In the same manner to in Experiment 2, the sensitization, the antigen challenge, and the administration of pyrilamine maleate and a medicament were carried out.
The recovery of bronchoalveolar lavage fluid (BALF) was carried out at 24 hours after the antigen challenge. Namely, the animals were anesthetized by intraperitoneal administration of pentbarbital (50 mg/ml) at a dose of 0.5 ml per animal, and the animals were subjected to an abdominal operation after sufficiently anesthetized. The perineal abdominal aorta was cut and the animals were killed by venesection. The diaphragm was incised and the neck was also incised to expose the trachea. After the trachea was cut, a cannula was inserted thereto, and an ice-cooled saline solution (5 ml) was injected by using a 5 ml syringe. Then, the injection and the suction were repeated three times by using the same solution for recovery. The fluid was collected and filtered through a stainless mesh, and collected in a tube on the ice. These procedures were repeated twice, and the recovery fluid was collected into the same tube (cases wherein the fluid volume was not more than 7 ml were not employed as data).
After the recovery, the fluid volume to be recovered was measured with the eye, and the fluid was centrifuged at 1500 rpm at 4° C. for 3 minutes, and the supernant was discarded. The residue was subjected to hemolysis under hypooncotic conditions. The mixture was centrifuged at 1500 rpm at 4° C. for 3 minutes, and the supernatant was discarded. The cells thus collected were suspended in a phosphoric buffered saline solution (PBS (−))(1 ml) containing a 0.5% BSA. The total number of cells were counted in this suspension by an automated leukocyte counter. After the measurement, a slide preparation was prepared by using Cytospin, which was further stained with a Diff Quick Stainning Kit.

A further data set relates to Hartley male guinea pigs. Description: Late asthmatic model in guinea pigs (ovalbumin sensitization and challenge, respiratory function sGaw). It counts as in vivo, guinea pig. The protocol:
Experiment 2 Evaluation of the Compound in Late Asthmatic Model in Guinea Pigs
The evaluation test was carried out using the compound obtained in Example 1.
Hartley male guinea pigs (purchased from Japan SLC) were prefed for about 1 week after purchasing them, and exposed to a 2% (w/v) solution of ovalbumin (OA) in saline solution in a plastic box (4 animals/box) for 5 minutes and made them inhale it by using an ultrasonic nebulizer (OMRON NE-U12, conditions: maximum amount of atomization and maximum airflow) for sensitization (Day 0). The animals were subjected to the same procedures on the 7th day. On the 14th and 15th days, each one animal was made to inhale a 2% OA for 5 minutes for antigen-challenge. One hour prior to the antigen-challenge, pyrilamine maleate (antihistamic agent; dissolved in saline solution, 10 mg/2 ml/kg) was intraperitoneally administered to each animal. A test compound was suspended in a 0.5% methyl cellulose (MC), and administered intraperitoneally twice to each animal at 2 hours prior to, and 6 hours after the antigen-challenge at a dose of 100 mg/5 ml/kg. To the control group, a 0.5% MC was administered in the same manner instead of a test compound.
The measurement and analysis of the respiratory function were carried out by a modified method of the method of Hutson et al., (cf., Penny A. Hutson et al., Am Rev Respir Dis 1988 137, 548-557). Before the antigen-challenge (before the administration of the drug) and 5 minutes, and 3, 17 and 20 hours after the antigen-challenge, the respiratory function of each animal was measured, and the wave pattern was recorded using Maclab Chart v 3.4 (AD instruments), and the analysis of the respiratory function was carried out later by using thereof. The specific airway conductance (sGaw) was calculated, and the degree of the improvement of the respiratory function was evaluated by using it as an index.

For data set [2], the target named is T1, SMBS on rat lung membranes (Rattus norvegicus, UniProt A0A8I6A822).
T1 construct: from tissue; host or cells: rat lung membranes (SD male rats)
T1 sequence (A0A8I6A822 27-587): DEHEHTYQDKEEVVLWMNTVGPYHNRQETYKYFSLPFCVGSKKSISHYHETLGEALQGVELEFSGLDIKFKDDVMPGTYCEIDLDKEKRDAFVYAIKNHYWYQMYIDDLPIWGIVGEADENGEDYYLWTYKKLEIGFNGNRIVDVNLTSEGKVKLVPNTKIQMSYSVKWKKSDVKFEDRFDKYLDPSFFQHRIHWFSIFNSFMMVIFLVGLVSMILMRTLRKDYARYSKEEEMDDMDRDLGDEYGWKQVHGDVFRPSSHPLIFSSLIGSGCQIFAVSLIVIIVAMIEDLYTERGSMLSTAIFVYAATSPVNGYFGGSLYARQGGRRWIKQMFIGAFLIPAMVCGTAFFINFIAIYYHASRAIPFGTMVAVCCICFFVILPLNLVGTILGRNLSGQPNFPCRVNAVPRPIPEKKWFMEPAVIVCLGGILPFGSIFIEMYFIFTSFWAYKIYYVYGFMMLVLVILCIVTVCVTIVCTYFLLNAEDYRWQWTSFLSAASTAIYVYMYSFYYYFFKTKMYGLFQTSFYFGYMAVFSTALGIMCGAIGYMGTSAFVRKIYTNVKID
Nature of the data set: Receptor binding of the compound in rat lung membranes ([125I]-iodo-cyanopindolol ligand binding assay; Experiments 1 and 4). The note with it: rat lung membranes, read-out: Binding Activity (30 μM). As for the experimental part:
Evaluation Test on Receptor Binding of the Compound in Rat Lung Membranes:
This experiment was carried out according to the method disclosed in Sugasawa et al., (Sugasawa, T. et al., J. Biol. Chem., 272, 21244-21252(1997)).
Preparation of Rat Lung Membranes
The air tube and blood vessels were removed from the lung excised from SD male rats (7-weeks old when used, purchased from Charles River Japan, Inc.), and the lung was chopped, and washed with ice-cold tris-saline buffer (10 mM Tris-HCl, 154 mM sodium chloride, pH 7.4). The lung was homogenized by PHYSCOTRON (maximum speed: 1 minute) in a buffer for homogenization (tris-saline buffer containing 1 mM ethylenediaminetetraacetate (EDTA), 1 mM 4-(2-aminoethyl)-benzenesulfonyl fluoride (AEBSF), 5 μg/ml aprotinin, 5 μg/ml leupeptin) under ice-cooling. The mixture was centrifuged at a low speed (1500×g, 20 minutes, 4° C.), and the supernatant was super-centrifuged (100000×g, 20 minutes, 4° C.). The pellets thus obtained were suspended in tris-saline buffer, and kept at −80° C. The concentration of protein was measured by a Protein Assay Kit manufactured by Bio-Rad using bovine serum albumin (BSA) as standard.
To each well of a protein-non-adsorbent round-bottom 96-well assay plate (purchased from IWAKI GLASS CO., LTD.) was added tris-saline buffer (200 μl) containing 1 nM [^125I]-iodo-cyanopindolol (purchased from Amarsham), 10 μM serotonin, 20 μM dl-propranol, 10 μM phentoramine, 1.1 mM ascorbic acid and 100 μg lung membranes, and the mixture was mixed well by pipetting, and the plate was incubated at 37° C. for 30 minutes. Test compounds were dissolved in 100% dimethylsulfoxide, and added to the plate in an amount of 2 μl (final concentration of DMSO: 1%). In order to obtain non-specific binding, L-threo-3-(3,4-dihydroxyphenyl)-N-[3-(4-fluorophenyl)propyl]-serinepyrrolidinamide was added at a final concentration of 100 μM instead of test compound. During this period, 0.3% polyethyleneimine (PEI)/tris-saline buffer (100 μl) was added to a multiscreen plate (96-well B-glassfiber, milipore Cat. No. MAFB NOB10) and the plate was incubated for more than 30 minutes. The plate was washed by vacuum filtration (by adding ice-cold tris-saline buffer (200 μl) and then vacuum filtration), and the reaction solution on the 96-well assay plate was washed by vacuum filtration onto the multiscreen plate for four times. The B-glassfiber paper filter at the bottom of the multiscreen plate was punched out, and the γ-ray amount of [^125I]-iodo-cyanopindolol being trapped onto the paper filter was measured as binding amount. The binding amount in the presence of DMSO (final concentration: 1%) was regarded as total binding, and the binding in the presence of L-threo-3-(3,4-dihydroxyphenyl) -N-[3-(4-fluorophenyl)-propyl]serinepyrrolidinamide was regarded as non-specific binding. The value which is calculated by subtracting non-specific binding from total binding is specific binding. The binding activity of the compound can be calculated by the following equation, and expressed in a ratio of inhibiting the specific binding of [^125I]-iodo-cyanopindorol to SMBS on rat lung membranes.
In the same manner to in Experiment 1, the receptor binding assay was carried out on the present compounds by using the rat lung membranes.

Setting [3] is: BALF recovered at 24 hours after the antigen challenge, guinea pig.
Setting [4] is: versus control group, BALF 24 hours after antigen challenge, 100 mg/5 ml/kg i.p. twice.
[5] abbreviates: Table 44, concentration tested 30 μM, Experiment 4.
Where [6] appears, read: ratio of inhibiting the specific binding of [125I]-iodo-cyanopindolol, test concentration 30 μM.

For `Cl.NCCCn1c(-c2ccc(Br)cc2)csc1=Nc1ccccc1`, the melting point (in general, the temperature, or range, at which the solid turns liquid) is 241 to 242 °C.
Turning to `CN(C)CCCn1c(-c2ccc(Br)cc2)csc1=Nc1ccccc1` [Example 1, N-{4-(4-bromophenyl)-3-[3-(dimethylamino)propyl]thiazol-2(3H)-ylidene}aniline], in data set [1] (setting [3]), the “Number of eosinophils (×10^5)” value is reported as 13.8 ± 5.1 ×10^5, the “Number of lymphocytes (×10^5)” value is listed as 2.0 ± 0.6 ×10^5 and the “Total number of cells (×10^5)” value is listed as 62.1 ± 8.6 ×10^5. In addition, in data set [1] (setting [4]), the “reduction of number of eosinophils in BALF” value is listed as 79%, the “reduction of number of lymphocytes in BALF” value was 70% and the “reduction of total number of cells in BALF” value amounted to 82%. Moreover, the “inhibitory rate of LAR (from rate of change of sGaw)” value with Hartley male guinea pigs (20-hr value, versus control group, 100 mg/5 ml/kg i.p. twice) is given as “about 60%”. The “Rate of change of sGaw, 5 minutes” value with Hartley male guinea pigs (5 minutes after antigen challenge (IAR), 100 mg/5 ml/kg i.p. 2 h prior to and 6 h after challenge) was −33.8 ± 6.8%. Moreover, in the data set on Hartley male guinea pigs (20 hours after antigen challenge (LAR), 100 mg/5 ml/kg i.p. 2 h prior to and 6 h after challenge), the “Rate of change of sGaw, 20 hours” value is recorded as −14.2±15.0%. Moreover, in the data set with Hartley male guinea pigs (result in words, 100 mg/5 ml/kg i.p. twice), the “inhibition of IAR induced immediately after the antigen challenge” value is “tendency of inhibiting the IAR”. Also, the inhibition at 30 µM in data set [2] (Table 37, compound concentration 30 μM, [125I]-iodo-cyanopindolol, Experiment 1) turned out to be 61.3%.
`COc1ccc(C(=O)/N=c2\scc(-c3ccc(OC(F)(F)F)cc3)n2CCCNC(C)=O)c(OC)c1` [Example 446, N-[3-[3-(Acetoamino)propyl]-4-[4-(trifluoromethoxy)phenyl]-1,3-thiazol-2(3H)-ylidene]-2,4-dimethoxybenzamide] displayed a melting point of 131 to 132 °C. In addition, the inhibition at 30 µM in data set [2] (setting [5]) worked out at 97%.
For `CC(=O)NCCCn1c(-c2ccc(OC(F)(F)F)cc2)cs/c1=N\C(=O)c1ccccn1` [Example 449], the inhibition at 30 µM in data set [2] (setting [5]) was determined as 71%.
Regarding `CC(=O)NCCCn1c(-c2ccc(OC(F)(F)F)cc2)cs/c1=N\C(=O)c1ccncc1` [Example 452], the inhibition at 30 µM in data set [2] (setting [5]) is 84%.
As to `CC(=O)NCCCn1c(-c2ccc(OC(F)(F)F)cc2)cs/c1=N\C(=O)CCc1ccccc1` [Example 454], in data set [2] (setting [5]), the inhibition at 30 µM amounted to 38%.
For `CC(=O)NCCCn1c(-c2ccc(OC(F)(F)F)cc2)cs/c1=N\C(=O)CC1CCCC1` [Example 458], in data set [2] (setting [5]), the inhibition at 30 µM was 87%.
For the molecule `COc1ccc(C(=O)/N=c2\scc(C(=O)Nc3ccc(Cl)cc3)n2CCCNC(C)=O)c(OC)c1` [Example 461], in data set [2] (setting [6]), the inhibition at 30 µM was 42%.
Regarding `COc1ccc(C(=O)/N=c2\scc(C(=O)NCc3ccc(Cl)cc3)n2CCCNC(C)=O)c(OC)c1` [Example 463], the inhibition at 30 µM in data set [2] (setting [6]) is 10%.
In the case of `COc1ccc(C(=O)N=c2scc(CNS(=O)(=O)c3ccc(C)cc3)n2CCCNC(C)=O)c(OC)c1` [Example 473, N-[3-[3-(Acetylamino)propyl]-4-({[(4-methylphenyl)sulfonyl]amino}-methyl)thiazol-2(3H)-ylidene]-2,4-dimethoxybenzamide], the inhibition at 30 µM in data set [2] (setting [5]) was 33%.
As to `COc1ccc(C(=O)/N=c2\scc(-c3ccc(OC(F)(F)F)cc3)n2CCCNC(=O)CN(C)C)c(OC)c1` [Example 482], the inhibition at 30 µM in data set [2] (setting [6]) came out at 85%.
Same read-out and setting: next, `CCNC(=O)NCCCn1c(-c2ccc(OC(F)(F)F)cc2)cs/c1=N\C(=O)c1ccc(OC)cc1OC` [Example 484]: 97%; `CCNC(=S)NCCCn1c(-c2ccc(OC(F)(F)F)cc2)cs/c1=N\C(=O)c1ccc(OC)cc1OC` [Example 494]: 65%; `CCNC(=O)NCCCn1c(-c2ccc(F)cc2)cs/c1=N\C(=O)c1ccc(Cl)cc1OC` [Example 496]: 80%.
Regarding `COc1ccc(C(=O)/N=c2\scc(-c3ccc(OC(F)(F)F)cc3)n2CCCNC(=O)N(C)C)c(OC)c1` [Example 508], in data set [2] (setting [6]), the inhibition at 30 µM came to 102%.
`COc1ccc(C(=O)/N=c2\scc(-c3ccc(OC(F)(F)F)cc3)n2CCCNC(=O)N2CCOCC2)c(OC)c1` [Example 509]: the inhibition at 30 µM in data set [2] (setting [6]) was determined as 103%.
Regarding `CCOC(=O)CCNCCCn1c(-c2ccc(OC(F)(F)F)cc2)cs/c1=N\C(=O)c1ccc(OC)cc1OC` [Example 520], the inhibition at 30 µM in data set [2] (setting [6]) stood at 99%.
As for `COc1ccc(C(=O)/N=c2\scc(-c3ccc(OC(F)(F)F)cc3)n2CCCNCC(N)=O)c(OC)c1` [Example 521], the inhibition at 30 µM in data set [2] (setting [6]) was 74%.
For `COc1ccc(C(=O)/N=c2\scc(-c3ccc(OC(F)(F)F)cc3)n2CCCNCC(=O)NCC(=O)O)c(OC)c1` [Example 523], in data set [2] (setting [6]), the inhibition at 30 µM amounted to 73%.
`COc1ccc(C(=O)/N=c2\scc(-c3ccc(OC(F)(F)F)cc3)n2CCCNCC(=O)O)c(OC)c1` [Example 531]: the inhibition at 30 µM in data set [2] (setting [6]) stood at 32%.
In the case of `COc1ccc(C(=O)/N=c2\scc(-c3ccc(OC(F)(F)F)cc3)n2CCCNC(=N)N)c(OC)c1` [Example 534], the inhibition at 30 µM in data set [2] (setting [6]) came to 87%.
As for `COc1ccc(C(=O)/N=c2\scc(-c3ccc(OC(F)(F)F)cc3)n2CCCNC(=N)N2CCCCC2)c(OC)c1` [Example 535], in data set [2] (setting [6]), the inhibition at 30 µM came out at 108%.
In the case of `CCS(=O)(=O)NCCCn1c(-c2ccc(OC(F)(F)F)cc2)cs/c1=N\C(=O)c1ccc(OC)cc1OC` [Example 536], the inhibition at 30 µM in data set [2] (setting [6]) worked out at 67%.
